Source: PMC3877906, “Polypeptide Modulators of TRPV1 Produce Analgesia without Hyperthermia” (Marine Drugs, 2013)
Entries after “also recorded” stand apart in the source; their conditions may differ.

Experiments:
CD-1 mice [1] = experiment: CFA-induced thermal hyperalgesia; format: in vivo, mouse; conditions: i.v., n = 9; for reversal of CFA-induced thermal hyperalgesia: 0.1-0.01 mg/kg (dose of this value not stated), 24 h after CFA, 53 °C; for CFA-induced thermal hyperalgesia, in words: 0.1-0.01 mg/kg, vs saline
From the text: CFA-induced thermal hyperalgesia depends on TRPV1 activation; this was shown in TRPV1-deficient mice and using TRPV1 antagonists. CFA-induced thermal hyperalgesia is a complex process where different inflammatory pathways acting via several mechanisms lower the TRPV1 temperature threshold and influence thermal sensitivity. CFA-treated mice developed thermal hyperalgesia in the injected paw, this manifested as a decrease in the latency to paw withdrawal in response to thermal stimuli (Figure 4c).
(§1) All experiments were performed in accordance with the recommendations in the “Principles of Laboratory Animal Care” and after approval by the Animal Care and Use Committee of the Branch of the IBCh RAS (Pushchino, Russia). Adult male CD-1 mice (Animal Breeding Facility Branch of Shemyakin-Ovchinnikov Institute of Bioorganic Chemistry, Russian Academy of Sciences, Pushchino, Russia) weighing 20–25 g were used. Animals were allowed to acclimate in the laboratory for at least five days. Mice were housed at room temperature (23 ± 2 °C) on a 12 h light–dark cycle with food and water available ad libitum. Polypeptides or vehicle was administered intravenously 15 min before testing.
(§2) The significance of the data was determined by analysis of variance (ANOVA) followed by Tukey’s test. Data are presented as mean ± S.E.
Complete Freund’s adjuvant suspended in an oil/saline (1:1) emulsion, was injected into the plantar surface of the left hind-paw of mice (20 μL/paw). Control mice received 20 μL of saline (i.pl.). Injected paw withdrawal latencies in response to thermal stimulation (53 °C) were measured 24 h after CFA injection.

CD-1 mice [2] = experiment: hot plate test; format: in vivo, mouse
Protocol: The hot plate test is a most simple for TRPV1 inhibitor characterization since TRPV1 play significant role in temperature sensation. Effect of APHC1 and APHC3 on thermal nociception at dose 0.1 mg/kg after intramuscular, intraperitoneal and intravenous administration was measured before. […] Here we assessed changes in thermal nociception to a noxious thermal stimuli elicited by different doses of APHC1 and APHC3 to determine minimal effective dose. […] Both polypeptides reached maximal effect at 0.1 mg/kg.
as §1, §2
Sensitivity to a thermal stimulus was determined by hind paw withdrawal or licking latency using a Hot-Plate Analgesia Meter (Columbus Instruments, Columbus, OH, USA) at 55 °C.

CD-1 mice [3] = experiment: capsaicin-induced acute pain test; format: in vivo, mouse; conditions: n = 9; for pain-related behavior after capsaicin, reduction: 0.1 mg/kg i.v. 15 min before intraplantar capsaicin (3 µg/10 µL), "~44% of response"; for pain-related behavior after capsaicin, in words: 0.1 mg/kg i.v., vs saline
From the text: Because capsaicin is a selective agonist of the TRPV1 receptor, we tested the efficacy of APHC1 and APHC3 as TRPV1 receptor antagonists using the capsaicin-induced pain model. Intraplantar injection of capsaicin evokes pain-related behavior such as licking and shaking the injected paw. TRPV1 knockout mice are insensitive to the capsaicin test and most antagonists that block capsaicin-induced currents in vitro also block capsaicin induced pain-related behavior in mice.
as §1, §2
Intraplantar injection of capsaicin (3 µg/10 µL in 10% ethanol/90% saline) was used to elicit capsaicin-induced acute pain [36]. Immediately after the capsaicin injection, mice were placed inside glass cylinders for observation. Intraplantar injection of capsaicin evoked licking and shaking of the injected paw in mice. The duration of episodes of licking and paw shaking were recorded.

TRPA1 = TRPA1 activity, oocyte electrophysiology or agonist-induced fluorescence readout; format: cell-based; conditions: concentrations of up to 2 μM; data not shown
From the text: The formalin test is a complex in vivo model of pain where TRPV1’s function is more integrative than perceptive. In the mouse, intraplantar injections of formalin produce a biphasic behavioral reaction. The molecular mechanisms underlying formalin-induced pain are based on tissue damage, non-specific activation of nociceptors and direct activation of TRPA1 receptors (measured in phase I) that drive the local neurogenic inflammation and CNS sensitization (measured in phase 2). APHC1 and APHC3 were tested on TRPA1 for inhibitory/activation effects.

TRPV1 = experiment: low pH-induced TRPV1 receptor currents/activation; format: cell-based; conditions: pH 5.5
From the text: The residues responsible for APHC’s activity are not determined. […] These differences in pharmacology were expressed further in the in vivo results.

CD-1 mice [4] = experiment: acetic acid-induced writhing (abdominal constriction test of visceral pain); format: in vivo, mouse
Protocol: TRPV1 can be activated by low pH stimuli and is therefore involved in pain caused by acidification, which can be measured in the pain behavior model of acetic acid-induced writhing. Intraperitoneal administration of acetic acid provokes a very stereotyped behavior in the mouse. The constriction response is considered the definitive measure of visceral pain intensity. Animals were pretreated with polypeptides 15 min before acetic acid injection.
as §1, §2
Separate groups of mice were injected with 0.6% acetic acid in saline (10 mL∙kg^−1 intraperitoneally (i.p.)). Mice were immediately placed inside transparent glass cylinders, and the number of writhes was recorded for 15 min.

TRPV3 = TRPV3 activity, oocyte electrophysiology or agonist-induced fluorescence readout; format: cell-based; conditions: concentrations of up to 2 μM; data not shown
[5] = i.v., 15 min before test, 55 °C, n = 9 per group, vs saline
[6] = 0.1 mg/kg i.v., n = 9, vs saline

Substance	reversal of CFA-induced thermal hyperalgesia (CD-1 mice [1])	CFA-induced thermal hyperalgesia, in words (CD-1 mice [1])	paw withdrawal latency, hot plate (CD-1 mice [2]; 0.001 mg/kg i.v., data not shown)	antinociception in hot plate test (CD-1 mice [2]; 0.01 mg/kg i.v., 55 °C, n = 9)	paw withdrawal latency, hot plate (CD-1 mice [2]; [5])	dose at which maximal effect is reached, hot plate (CD-1 mice [2]; i.v., 55 °C, n = 9)	pain-related behavior after capsaicin, reduction (CD-1 mice [3])	pain-related behavior after capsaicin, in words (CD-1 mice [3])	agonistic/antagonistic activity at TRPA1 (TRPA1)	effect on low pH-induced TRPV1 activation, in words (TRPV1)	number of writhes, in words (CD-1 mice [4]; [6])	number of writhes, in words (CD-1 mice [4]; 0.5 mg/kg i.v.)	agonistic/antagonistic activity at TRPV3 (TRPV3)	inhibition of number of writhes (CD-1 mice [4]; 0.1 and 0.5 mg/kg i.v. 15 min before 0.6% acetic acid i.p., n = 9)
APHC1: polypeptide modulator of TRPV1 from sea anemone Heteractis crispa; homologous to BPTI/Kunitz type serine-protease inhibitors; produced recombinantly in E. coli (GSICLEPKVVGPCTAYFRRFYFDSETGKCTVFIYGGCEGNGNNFETLRACRAICRA; left off: TRX, end not stated, cleaved)	~ 80%	Dose dependent inhibition of CFA-induced thermal hyperalgesia; also recorded: significantly reduced thermal hyperalgesia; also recorded: clearly dose-dependent	did not prolong paw withdrawal latency	produced antinociception	Dose dependent inhibition of thermal nociception; also recorded: significantly increased paw withdrawal latency	0.1 mg/kg	~ 44%	significantly reduced the behavioral response to capsaicin; also recorded: significantly reduced pain-related behavior	neither agonistic nor antagonistic activity	unable to observe any effect	did not produce a statistically significant effect; also recorded: did not significantly inhibit the response to acetic acid	significantly reduced number of writhes	neither agonistic nor antagonistic activity	–
APHC3: polypeptide from Heteractis crispa highly homologous to APHC1, differing in four of 56 amino acids; produced recombinantly in E. coli (GSICLEPKVVGPCTAYFPRFYFNSETGKCTPFIYGGCEGNGNNFETLRACRGICRA; left off: TRX, end not stated, cleaved)	34%	Dose dependent inhibition of CFA-induced thermal hyperalgesia; also recorded: significantly reduced thermal hyperalgesia	–	–	Dose dependent inhibition of thermal nociception; also recorded: significantly increased paw withdrawal latency	0.1 mg/kg	~ 44%	significantly reduced the behavioral response to capsaicin; also recorded: significantly reduced pain-related behavior	neither agonistic nor antagonistic activity	inhibited acid-induced (pH 5.5) activation of the receptor	significantly reduced the number of writhes	–	neither agonistic nor antagonistic activity	50%
